One block for each molecule: values may come before it.
B1: Fenna-Matthews-Olson (FMO) complex (natural protein, UniProt Q46393 1-366, looked up)
chain: MALFGSNDVTTAHSDYEIVLEGGSSSWGKVKARAKVNAPPASPLLPADCDVKLNVKPLDPAKGFVRISAVFESIVDSTKNKLTIEADIANETKERRISVGEGMVSVGDFSHTFSFEGSVVNLFYYRSDAVRRNVPNPIYMQGRQFHDILMKVPLDNNDLIDTWEGTVKAIGSTGAFNDWIRDFWFIGPAFTALNEGGQRISRIEVNGLNTESGPKGPVGVSRWRFSHGGSGMVDSISRWAELFPSDKLNRPAQVEAGFRSDSQGIEVKVDGEFPGVSVDAGGGLRRILNHPLIPLVHHGMVGKFNNFNVDAQLKVVLPKGYKIRYAAPQYRSQNLEEYRWSGGAYARWVEHVCKGGVGQFEILYAQ
notes: FMO bacteriochlorophyll a protein of Chlorobaculum tepidum TLS; homotrimer, each monomer with eight BChl a; Two trimers (FMO1, FMO2) of the same protein sit on one reaction center in the RC-FMO2 structure; they are one molecule here; also called FMO trimer; FMO1
B2: PscD (natural protein, UniProt Q8KEP5 1-143, looked up)
chain: MQPQLSRPQTASNQVRKAVSGPWSGNAVHKAEKYFITSAKRDRDGKLQIELVPASGRRKLSPTPEMIRRLIDGEIEIYILTTQPDIAIDMNKEIIDMENRYVIDFDKRGVKWTMREIPVFYHEGKGLCVELHNKIYTLDQFFK
notes: PscD subunit of the reaction center of Chlorobaculum tepidum; also called PscD subunit

Assays:
[1] = biological target: T1, GsbRC core (PscA dimer) in the RC-FMO2 photosynthetic supercomplex (Chlorobaculum tepidum, UniProt Q8KAY0); experiment: cryo-EM structure, RC-FMO2 […] Å; assay type: binding
T1 construct: gene CT2020; native complex from membranes of C. tepidum, DDM-solubilized, no tags; homodimeric PscA core with associated subunits; PscE 59 residues modeled; with Photosystem P840 reaction center iron-sulfur protein; Cytochrome c (photosystem P840 reaction center cytochrome c-551); Photosystem P840 reaction center protein PscD; PscE, accessory membrane subunit; Ric1 protein; Bacteriochlorophyll a protein

PscB = biological target: T2, PscB (Chlorobaculum tepidum, UniProt Q8KAY1); experiment: cryo-EM structure, RC-FMO2 […] Å; assay type: binding; settings: FA and FB clusters
T2 construct: native subunit in the RC-FMO2 supercomplex, no tags; loop 17-129 unmodelled; with Photosystem P840 reaction center, large subunit

[2] = biological target: the molecule itself; experiment: cryo-EM structure; single-particle cryo-EM of the native supercomplex extracted with DDM from C. tepidum membranes; RC-FMO2 at 3.08 Å (local 2.92 and 3.06 Å), RC-FMO1 at 3.49 Å; 20 mM Tris-Cl pH 8.0, 200 mM NaCl, 0.17 mM DDM
[3] = biological target: B1; experiment: as above; settings: both partners purified

Molecule: [S]1[Fe]2[S]3[S]4[Fe][S]2[Fe]4[Fe]13 [SF4, iron-sulfur cluster]
cryo-EM structure, RC-FMO2 3.08 Å ([1]; FX cluster at PscA dimer): The FeS clusters and P840 dimer that drive the ETC in RC-FMO2 are arranged similarly
cryo-EM structure, RC-FMO2 3.08 Å (PscB): Cartoons are the protein residues that interact with the FeS clusters

cryo-EM structure, RC-FMO2 3.08 Å ([1]; three molecules in RC core): four Chl a, three chlorobactenes (F26)
Molecule: CC(C)=CCC/C(C)=C/C=C/C(C)=C/C=C/C(C)=C/C=C/C=C(C)/C=C/C=C(C)/C=C/c1c(C)ccc(C)c1C [F26, chlorobactene]

Molecule: B1
binding result [2]: binds

Molecule: B2
binding result [3]: binds
